Earlier results, collected in patent publication US20260014261A1, “TARGETED PROTEIN MODIFICATION” (Weatherwax Biotechnologies Corporation, priority 2022, published 2026).

Biological target: p53 (Homo sapiens, UniProt P04637)
Settings: read-out: binding affinity (Kd) for p53

p53, sequence (P04637 whole entry): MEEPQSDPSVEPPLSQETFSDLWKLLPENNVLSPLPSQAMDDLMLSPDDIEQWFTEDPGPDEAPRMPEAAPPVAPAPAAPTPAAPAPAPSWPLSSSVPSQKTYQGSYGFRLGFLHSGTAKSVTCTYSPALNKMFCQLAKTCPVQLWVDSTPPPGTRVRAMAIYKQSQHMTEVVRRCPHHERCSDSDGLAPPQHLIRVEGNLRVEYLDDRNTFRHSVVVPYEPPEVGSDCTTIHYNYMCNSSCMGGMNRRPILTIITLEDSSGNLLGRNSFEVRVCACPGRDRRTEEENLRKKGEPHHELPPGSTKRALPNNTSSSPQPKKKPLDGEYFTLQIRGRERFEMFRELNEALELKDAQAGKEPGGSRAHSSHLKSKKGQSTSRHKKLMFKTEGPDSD

Kd: ~1000 nM
Structure (SMILES): CN(C)CCCNc1nc(CN2CCN(C(c3ccc(Cl)cc3)c3ccc(Cl)cc3)CC2)nc2ccccc12 [SCH 529074]
